Assay results published in publication PMC4914250, “Cancer therapeutic approach based on conformational stabilization of mutant p53 protein by small peptides” (Oncotarget, 2016).

What was measured:
H23 = assay: Crystal violet viability assay, H23; type: cell-based, human; parameters: key: score 0- no effect-white; score 6- as or more effective than positive control- black; details: score 0-6 compared to positive control, 48 h
Text: (§1) We also performed a similar analysis on ES2 ovarian cancer cells, which express endogenous mp53^S241F, compared to ES2 cells in which p53 was stably knocked out using CRISPR/Cas9 (ES2 p53KO Figure S1F), to control for specificity for mutp53 (Figure 2D). In ES2 cells, too, some of the peptides caused a significant reduction in cell numbers, more prominent in the mutp53 expressing cells than in their p53KO counterparts. […] Overall, we performed this analysis on several different mutp53-expressing human cancer cell lines, and the results are summarized in Table S3. Based on this comprehensive picture, we reduced the number of most promising candidate lead peptides to 30. These peptides were then synthesized with an 8 arginine C-terminal tail for enhanced delivery across cell membranes (pCAPs 130-160); for clarity, peptides are referred to by their original number, with an R for poly arginine (see Table S3).
(§2) Cells were cultured in 96 wells plates with 2500-4000 cells/well. Serial dilutions of different peptides were added and the plates incubated for additional 48 h at 37°C. Then medium was removed and cell viability was determined by staining the cells with crystal violet (0.05%) in methanol/PBS (1:5, v/v), for 10 min, followed by 3 washes with PBS. 10% acetic acid was added to each well for 10 min. OD was determined at 595 nm.

[1] = test system: p53 target genes in ES2 cells; assay: Induction of p53 target genes by qRT-PCR, ES2; type: cell-based, human; details: for expression of the p53 target genes, ES2: peptide 5ug/ml, 18 hours, ES2 versus ES2 p53KO; for PCR ES2: score 0-6 compared to positive control, induction of p53 target genes by qRT-PCR
Experimental: (§3) Since p53 works primarily as a transcription factor, we tested the ability of lead peptides to induce p53 target gene activation. To that end we used H1299-tsp53^V135A cells, which express temperature sensitive (ts) p53 and allow examination of WT and mutant p53 states in the same cellular background. In the representative experiment shown in Figure 3A, cells were exposed to the indicated peptides (5μg/ml) and then either transferred to 32°C or placed back at 37°C. Cells were harvested 18 hours later, and mRNA was extracted and subjected to qRT-PCR analysis. Expression levels of 3 representative p53 target genes, p21, PUMA and Mdm2, were examined. Values were normalized to non-treated cells at 37°C, and expression at 32°C, where the ts-p53 is in a WT conformation, served as positive control. […] A similar analysis was performed on ES2 ovarian cancer cells, expressing endogenous mp53^S241F, compared to ES2 p53KO cells (Figure 3B).
Figure 3 Peptides binding to p53 and their effect on the expression of p53 target genes A. - Bar graph illustrating the effect of selected peptides on activation of mutp53 by measuring transactivation of p53 target genes as determined by qRT-PCR. H1299 cells stably transfected with mutp53 (ts) A135V were used. The indicated peptides were added directly to the medium at a concentration of 5ug/ml and cells were then either moved to 32°C or returned to 37°C. 18 hours later cells were harvested, extracted for RNA, cDNA was synthesis subjected to qrt time PCR analysis. The expression level of 3 representative p53 target genes, p21, PUMA and Mdm2, were examined. The figure illustrates the relative fold induction of transcription of the cells treated with the selected peptides as compared to non-treated cells. B. - Bar graph illustrating the effect of selected peptides on activation of mutp53 by measuring transactivation of p53 target genes as determined by qRT-PCR. ES2and ES2-p53KO cells were treated with indicated peptides 5ug/ml, for 18 hours. Cells were harvested, and cDNA was subjected to qRT-PCR analysis. Expression of 4 representative p53 target genes, p21, PUMA, Mdm2 and CD95, was examined. The figure illustrates the relative fold induction of transcription in cells treated with the selected peptides compared to non-treated cells. C. - Binding of mutp53 to promoters of representative p53 target genes in live cells, assessed by chromatin immunoprecipitation. BT-549 breast cancer cells endogenously expressing mutant p53^R249S were treated for 5 hours with a mix of 3 pCAPs - 250, 242 and 325. Cells treated with a mix of inert peptides served as a negative control. DNA cross-linked p53 was immunoprecipitated, and binding to the p53 responsive elements of the PUMA, p21, CD95 and MDM2 gene promoters was quantified by qPCR. Results were normalized to input total DNA. Cell extracts immunoprecipitated with beads without antibody (beads) served as negative controls. A genomic segment containing no p53RE served as negative control (white and gray bars). D. - ELISA analysis of the binding of WTp53 and mutp53 to lead peptides. Peptides were conjugated to the bottoms of the wells of 96 well plates, employing a commercial conjugation kit (TAKARA). Control wells were coated with the αp53 monoclonal antibodies PAb1801, PAb1620 and PAb240. Recombinant WTp53 or mutp53R175H was added to the wells and incubated with the bound peptides or antibodies. Where indicated, soluble peptides were added as competitors (+ comp), to confirm the specificity of the binding to p53. pCAP-76 served as a negative control peptide. After removal of recombinant protein, plates were washed and incubated with αp53-HRP followed by TMB and optical density determination. Results are presented as relative absorbance at 450nm. […] See Materials and Methods for details.
Figure 4 Peptides trigger apoptosis in correlation to activation of WTp53 target genes A., C. - Apoptosis of ES2 cells treated with peptides. […]

[2] = test system: p53 target genes p21, PUMA and Mdm2 in H1299-tsp53^V135A cells; assay: Induction of p53 target genes by qRT-PCR, H1299-tsp53 cells; type: cell-based, human; details: peptide 5μg/ml, 18 hours, 37°C
Experimental: as §3
Figure 3 Peptides binding to p53 and their effect on the expression of p53 target genes A. - Bar graph illustrating the effect of selected peptides on activation of mutp53 by measuring transactivation of p53 target genes as determined by qRT-PCR. H1299 cells stably transfected with mutp53 (ts) A135V were used. The indicated peptides were added directly to the medium at a concentration of 5ug/ml and cells were then either moved to 32°C or returned to 37°C. 18 hours later cells were harvested, extracted for RNA, cDNA was synthesis subjected to qrt time PCR analysis. The expression level of 3 representative p53 target genes, p21, PUMA and Mdm2, were examined. The figure illustrates the relative fold induction of transcription of the cells treated with the selected peptides as compared to non-treated cells. B. - Bar graph illustrating the effect of selected peptides on activation of mutp53 by measuring transactivation of p53 target genes as determined by qRT-PCR. ES2and ES2-p53KO cells were treated with indicated peptides 5ug/ml, for 18 hours. Cells were harvested, and cDNA was subjected to qRT-PCR analysis. Expression of 4 representative p53 target genes, p21, PUMA, Mdm2 and CD95, was examined. The figure illustrates the relative fold induction of transcription in cells treated with the selected peptides compared to non-treated cells. C. - Binding of mutp53 to promoters of representative p53 target genes in live cells, assessed by chromatin immunoprecipitation. BT-549 breast cancer cells endogenously expressing mutant p53^R249S were treated for 5 hours with a mix of 3 pCAPs - 250, 242 and 325. […] DNA cross-linked p53 was immunoprecipitated, and binding to the p53 responsive elements of the PUMA, p21, CD95 and MDM2 gene promoters was quantified by qPCR. […] Results are presented as relative absorbance at 450nm. […]

MDA = assay: Crystal violet viability assay, MDA; type: cell-based, human; details: score 0-6 compared to positive control, 48 h
Text: as §1, §2

[3] = test system: p53 target genes in MDA231; assay: Induction of p53 target genes by qRT-PCR, MDA231; type: cell-based, human; parameters: key: score 0- no effect-white; score 6- as or more effective than positive control- black; details: score 0-6 compared to positive control
Experimental: RNA was obtained using Macherey-Nagel NucleoSpin RNA II Kit on cells pellet according to the manufacturer's protocol. Aliquots of 0.4-1 μg were reverse transcribed using Bio-RT 2000 (Bio-Lab) and random hexamer primers. QRT-PCR was performed on an ABI 7300 instrument (Applied Biosystems) using SYBR Green FastMix ROX (Quanta). RT-PCR primers (All primers sequences are presented 5′ to 3′): […]

[4] = test system: recombinant WTp53 or mutp53R175H; assay: ELISA of binding of WTp53 and mutp53 to plate-conjugated peptides; details: peptides conjugated to wells, peptides recruited preferentially WTp53

Row | Substance | Viability H23 (H23) | expression of the p53 target genes, ES2 [1] | expression of the p53 target genes, H1299-tsp53 [2] | Viability MDA (MDA) | PCR MDA231 [3] | PCR ES2 [1] | recruitment of mutp53 lower than of WTp53 [4]
1 | SFILFIRRGRLGRRRRRRRRR [pCAP-60R, pCAP-60 with poly arginine tail] | 4 | significant increase | significant increase |  |  |  | 
2 | myr-RRKHNKHRPEPDSDER [pCAP-221] | 6 |  |  | 5 | 4 | 4 | 50%-80%
3 | myr-RRKILFIRLMHNKH [pCAP-227, myristoylated peptide, similarity to GAS2] | 3 |  |  | 3 | 3 | 5 | 
4 | WNHHHSTPHPAHRRRRRR [pCAP-97R, pCAP-97 with poly arginine tail] |  | significant increase | significant increase | 4 | 3 | 5 | 
5 | LRCLLLLIGRVGRRRRRRRR [pCAP-24R, pCAP-24 with poly arginine tail] |  | significant increase | significant increase | 4 |  | 4 | 
6 | myr-RRIRDPRILLLHFD [pCAP-325] | 4 |  |  | 4 | 6 |  | 
7 | HHPWTHHQRWS [pCAP-20] | 4 |  |  |  |  | 4 | 
8 | HANLHHT [pCAP-87] |  |  |  |  | 4 | 2 | 
9 | WNHHHSTPHPAH [pCAP-97] |  |  |  | 4 | 3 | 5 | 
10 | IRGRIIR [pCAP-54] |  | significant increase | significant increase | 4 |  |  | 
11 | myr-RRLIVRILKLPNPPER [pCAP-242] | 6 |  |  | 3 | 2 | 4 | 50%-80%
12 | YRRLLIGMMWRRRRRRRRR [pCAP-68] |  |  |  | 4 | 2 | 3 | 
13 | YPTQGHLR [pCAP-36] |  |  |  | 4 |  |  | 
14 | EVTFRHSVV [pCAP-1, randomly selected peptide used as inert comparison] |  |  |  |  |  | 3 | 
15 | SFILFIRRGRLG [pCAP-60] |  |  |  |  | 2 |  | 
16 | myr-PRVLPSPHTIHPSQYP [pCAP-229, myristoylated peptide, similarity to HIPK2] | 3 |  |  |  | 3 | 3 | 
17 | IRGRIIRRRRRRRRR [pCAP-54R, pCAP-54 with poly arginine tail] |  |  |  | 4 |  |  | 
